Data as given in patent US8039603B2, “Nucleic acid and corresponding protein entitled 121P1F1 useful in treatment and detection of cancer” (Agensys, Inc., priority 2001, dated 2011).

Test system: LAPC-4 cells
Test: Androgen regulation of 121P1F1 in vitro (Northern blot)
Type: cell-based, human
Settings: LAPC-4 cells in charcoal-stripped medium
Procedure: FIG. 22. Androgen regulation of 121P1F1 in vitro. […] cells were grown in charcoal-stripped medium and stimulated with the synthetic androgen mibolerone, for either 14 or 24 hours. Northern blot was performed with 10 μg of total RNA for each sample, and probed with the 121P1F1 SSH fragment. A picture of the ethidium-bromide staining of the RNA gel is also presented (lowest panel). Hybridization of the same northern blot with the androgen-dependent gene TMPRSS2 confirms the quality of the androgen deprivation.
Since 121P1F1 was derived from a […] LAPC-9 AD (28 days post-castration) subtraction, an assay was performed for androgen regulation of 121P1F1 (FIG. 22). LAPC-4 cells were grown in charcoal-stripped medium and stimulated with the synthetic androgen mibolerone, for either 14 or 24 hours. It was shown that the expression of 121P1F1 went down in absence of normal serum, and is modulated in presence of mibolerone, 24 hours after stimulation. The experimental samples were confirmed by testing for the expression of the androgen-regulated prostate cancer gene TMPRSS2.

With `C[C@@H]1CC2=CC(=O)CC[C@@H]2[C@H]2CC[C@@]3(C)[C@@H](CC[C@]3(C)O)[C@@H]21` [mibolerone] the “expression of 121P1F1” value (24 hours after stimulation) was “modulated” and the TMPRSS2 expression (at 14 and 24 hours) was “induced”.
